Data from US5198564A, “Cis-platinum-diamine complexes and antitumorous compositions containing them, and process for their preparation” (Beijing Polytechnic University, priority 1987, dated 1993).

Key:
[1] = water
S180 sarcoma cells = test: Effect in prolonging the life of mouse with cancer (S180), Test Example 2; format: in vivo, DBA/2 mice; details: i.p. once, 30 days observation
Description: To DBA/2 mice, S180 sarcoma cells were intraperitoneally inoculated with approximately 1×10^6 cells/mouse. The test drugs were intraperitoneally administered once (e.g. after 24 hours of inoculation). […] The ratio (T/C %) of survival time of test and control animals was obtained and is shown in table V with the average number of survival days for mice of the control group to which a physiological saline was administered being evaluated as 100. The test drugs were aqueous suspensions obtained by adding small amount of surfactants (e.g. tween-80) to the less soluble test compounds in water.

[2] = system: L1210 mouse leukemia cells; test: Effect in prolonging the life of mouse with cancer (L1210), Test Example 1; format: in vivo, DBA/2 mice; details: i.p. once, 30 days observation
Description: To DBA/2 mice, L1210 mouse leukemia cells were inoculated into the abdominal cavity of each mouse used in the test. The test drugs were intraperitoneally administered once (e.g. after 24 hours of inoculation). […] The ratio (T/C %) of the survival time of a treated group (administered with a certain drug) to the survival time of a control group (administered with only physiological saline) was obtained and is shown in table VI with the average number of survival days for mice of the control group being evaluated as 100. The test drugs were aqueous suspensions obtained by adding small amounts of surfactants (e.g. tween-80) to the less soluble test compounds in water.

[3] = system: Sarcoma 180 and Leukemia L1210; details: reported in 1969; cited from earlier work
[4] = L1210 S180 printed, one value only, 8 mg/kg

Question: With N[C@@H]1COCO[C@@H]1c1ccccc1.N[C@@H]1COCO[C@@H]1c1ccccc1.[I][Pt][I] as the molecule, how does the Solubility [1] read?
Answer: 20 µg/mL

Question: Which Solubility [1] does the source give for N[C@@H]1COCO[C@@H]1c1ccccc1.N[C@@H]1COCO[C@@H]1c1ccccc1.[Cl][Pt][Cl] here?
Answer: 60 µg/mL

Question: For NCc1ccc(O)cc1.NCc1ccc(O)cc1.[I][Pt][I], which Solubility [1] is on record?
Answer: 800 µg/mL

Question: With NCc1ccc(O)cc1.NCc1ccc(O)cc1.[Cl][Pt][Cl] as the molecule, how does the Solubility [1] read?
Answer: 1500 µg/mL

Question: With NCc1ccccc1CN.[I][Pt][I] as the molecule, how does the Solubility [1] read?
Answer: 10 µg/mL

Question: For NCc1ccccc1CN.[Cl][Pt][Cl], which Solubility [1] is on record?
Answer: 20 µg/mL

Question: For NCc1cc(C(=O)O)c(C(=O)O)cc1CN.[I][Pt][I], which Solubility [1] is on record?
Answer: 1100 µg/mL

Question: For NCc1cc(C(=O)O)c(C(=O)O)cc1CN.[Cl][Pt][Cl], which Solubility [1] is on record?
Answer: 2400 µg/mL

Question: With NCc1ccc(Cl)cc1.NCc1ccc(Cl)cc1.[I][Pt][I] as the molecule, how does the “T/C (%) of ST (ratio of survival time of test and control animals)” value (S180 sarcoma cells; 10 mg/kg) read?
Answer: > 140%

Question: And the “T/C (%) of ST (ratio of survival time of test and control animals)” value ([2]; L1210, 10 mg/kg)?
Answer: > 182%

Question: Which “T/C (%) of ST (ratio of survival time of test and control animals)” value [2, 4] does the source give for NCc1ccccc1.NCc1ccccc1.[I][Pt][I] here?
Answer: > 201%

Question: Which “T/C (%) of ST (ratio of survival time of test and control animals)” value [2, 4] does the source give for NCc1ccccc1.NCc1ccccc1.[Cl][Pt][Cl] here?
Answer: > 201%

Question: Which “T/C (%) of ST (ratio of survival time of test and control animals)” value (S180 sarcoma cells; 10 mg/kg) does the source give for NCc1ccccc1Br.NCc1ccccc1Br.[I][Pt][I] here?
Answer: > 180%

Question: And the “T/C (%) of ST (ratio of survival time of test and control animals)” value ([2]; L1210, 10 mg/kg)?
Answer: > 175%

Question: With NCc1ccccc1Br.NCc1ccccc1Br.[Cl][Pt][Cl] as the molecule, how does the “T/C (%) of ST (ratio of survival time of test and control animals)” value (S180 sarcoma cells; 10 mg/kg) read?
Answer: > 184%

Question: And the “T/C (%) of ST (ratio of survival time of test and control animals)” value ([2]; L1210, 10 mg/kg)?
Answer: > 180%

Question: Which “T/C (%) of ST (ratio of survival time of test and control animals)” value (S180 sarcoma cells; 17.5 mg/kg) does the source give for NCc1ccc(Br)cc1.NCc1ccc(Br)cc1.[I][Pt][I] here?
Answer: > 158%

Question: And the “T/C (%) of ST (ratio of survival time of test and control animals)” value ([2]; L1210, 17.5 mg/kg)?
Answer: > 150%

Question: With NCc1ccc(Br)cc1.NCc1ccc(Br)cc1.[Cl][Pt][Cl] as the molecule, how does the “T/C (%) of ST (ratio of survival time of test and control animals)” value (S180 sarcoma cells; 12 mg/kg) read?
Answer: > 198%

Question: What about the “T/C (%) of ST (ratio of survival time of test and control animals)” value ([2]; L1210, 12 mg/kg) of the same molecule?
Answer: > 205%

Question: With NCc1ccc(F)cc1.NCc1ccc(F)cc1.[I][Pt][I] [I 11] as the molecule, how does the “T/C (%) of ST (ratio of survival time of test and control animals)” value (S180 sarcoma cells; 13.5 mg/kg) read?
Answer: > 184%

Question: What about the “T/C (%) of ST (ratio of survival time of test and control animals)” value ([2]; L1210, 13.5 mg/kg) of the same molecule?
Answer: > 161%

Question: Which “T/C (%) of ST (ratio of survival time of test and control animals)” value (S180 sarcoma cells; 13.5 mg/kg) does the source give for NCc1ccc(F)cc1.NCc1ccc(F)cc1.[Cl][Pt][Cl] [I 12] here?
Answer: > 175%

Question: What about the “T/C (%) of ST (ratio of survival time of test and control animals)” value ([2]; L1210, 13.5 mg/kg) of the same molecule?
Answer: > 177%

Question: Which results are given for NCc1ccc(Cl)c(O)c1.NCc1ccc(Cl)c(O)c1.[I][Pt][I] [I 20]?
Answer: T/C (%) of ST (ratio of survival time of test and control animals) (S180 sarcoma cells; 15 mg/kg): > 227%; T/C (%) of ST (ratio of survival time of test and control animals) ([2]; L1210, 15 mg/kg): > 212%

Question: Which “T/C (%) of ST (ratio of survival time of test and control animals)” value (S180 sarcoma cells; 15 mg/kg) does the source give for NCc1ccc(Cl)c(O)c1.NCc1ccc(Cl)c(O)c1.[Cl][Pt][Cl] [I 21] here?
Answer: > 251%

Question: What about the “T/C (%) of ST (ratio of survival time of test and control animals)” value ([2]; L1210, 15 mg/kg) of the same molecule?
Answer: > 238%

Question: What does the source list for C[C@@H](N)c1ccccc1.C[C@@H](N)c1ccccc1.[I][Pt][I] [I 28]?
Answer: T/C (%) of ST (ratio of survival time of test and control animals) (S180 sarcoma cells; 17.5 mg/kg): > 215%; T/C (%) of ST (ratio of survival time of test and control animals) ([2]; L1210, 17.5 mg/kg): > 220%

Question: For C[C@@H](N)c1ccccc1.C[C@@H](N)c1ccccc1.[Cl][Pt][Cl] [I 29], which “T/C (%) of ST (ratio of survival time of test and control animals)” value (S180 sarcoma cells; 17.5 mg/kg) is on record?
Answer: > 250%

Question: And the “T/C (%) of ST (ratio of survival time of test and control animals)” value ([2]; L1210, 17.5 mg/kg)?
Answer: > 246%

Question: Which “T/C (%) of ST (ratio of survival time of test and control animals)” value (S180 sarcoma cells; 17.5 mg/kg) does the source give for C[C@H](N)c1ccccc1.C[C@H](N)c1ccccc1.[I][Pt][I] [I 30] here?
Answer: > 230%

Question: And the “T/C (%) of ST (ratio of survival time of test and control animals)” value ([2]; L1210, 17.5 mg/kg)?
Answer: > 226%

Question: Which “T/C (%) of ST (ratio of survival time of test and control animals)” value (S180 sarcoma cells; 17.5 mg/kg) does the source give for C[C@H](N)c1ccccc1.C[C@H](N)c1ccccc1.[Cl][Pt][Cl] [I 31] here?
Answer: > 245%

Question: And the “T/C (%) of ST (ratio of survival time of test and control animals)” value ([2]; L1210, 17.5 mg/kg)?
Answer: > 260%

Question: Which “T/C (%) of ST (ratio of survival time of test and control animals)” value (S180 sarcoma cells; 10 mg/kg) does the source give for NCc1ccc(C(=O)O)cc1.NCc1ccc(C(=O)O)cc1.[I][Pt][I] [I 36] here?
Answer: > 230%

Question: What about the “T/C (%) of ST (ratio of survival time of test and control animals)” value ([2]; L1210, 10 mg/kg) of the same molecule?
Answer: > 243%

Question: For NCc1ccc(C(=O)O)cc1.NCc1ccc(C(=O)O)cc1.[Cl][Pt][Cl] [I 37], which “T/C (%) of ST (ratio of survival time of test and control animals)” value (S180 sarcoma cells; 10 mg/kg) is on record?
Answer: > 255%

Question: And the “T/C (%) of ST (ratio of survival time of test and control animals)” value ([2]; L1210, 10 mg/kg)?
Answer: > 250%

Question: For NCc1ccco1.NCc1ccco1.[I][Pt][I] [I 42], which “T/C (%) of ST (ratio of survival time of test and control animals)” value (S180 sarcoma cells; 17.5 mg/kg) is on record?
Answer: > 200%

Question: What about the “T/C (%) of ST (ratio of survival time of test and control animals)” value ([2]; L1210, 17.5 mg/kg) of the same molecule?
Answer: > 200%

Question: Which “T/C (%) of ST (ratio of survival time of test and control animals)” value (S180 sarcoma cells; 12 mg/kg) does the source give for NCc1ccco1.NCc1ccco1.[Cl][Pt][Cl] [I 43] here?
Answer: > 230%

Question: What about the “T/C (%) of ST (ratio of survival time of test and control animals)” value ([2]; L1210, 12 mg/kg) of the same molecule?
Answer: > 225%

Question: For NCc1ccc(CO)o1.NCc1ccc(CO)o1.[I][Pt][I] [I 44], which “T/C (%) of ST (ratio of survival time of test and control animals)” value (S180 sarcoma cells; 17.5 mg/kg) is on record?
Answer: > 220%

Question: What about the “T/C (%) of ST (ratio of survival time of test and control animals)” value ([2]; L1210, 17.5 mg/kg) of the same molecule?
Answer: > 215%

Question: Which “T/C (%) of ST (ratio of survival time of test and control animals)” value (S180 sarcoma cells; 12 mg/kg) does the source give for NCc1ccc(CO)o1.NCc1ccc(CO)o1.[Cl][Pt][Cl] [I 45] here?
Answer: > 218%

Question: What about the “T/C (%) of ST (ratio of survival time of test and control animals)” value ([2]; L1210, 12 mg/kg) of the same molecule?
Answer: > 226%

Question: With N.N.[Cl][Pt][Cl] [PDD, Cis-platinum (II) diamine dichloride] as the molecule, how does the anticancer activity [3] read?
Answer: strong anticancer activity against Sarcoma 180 and Leukemia L1210

Question: Which “T/C (%) of ST (ratio of survival time of test and control animals)” value (S180 sarcoma cells; 10 mg/kg) does the source give for NCc1ccc(Cl)cc1.NCc1ccc(Cl)cc1.O=C([O-])C1(C(=O)[O-])CCC1.[Pt+2] [V/7] here?
Answer: > 202%

Question: What about the “T/C (%) of ST (ratio of survival time of test and control animals)” value ([2]; L1210, 10 mg/kg) of the same molecule?
Answer: > 210%

Question: For NCc1ccc(Cl)cc1.NCc1ccc(Cl)cc1.[Cl][Pt][Cl] [drawing 204], which Solubility [1] is on record?
Answer: 10 µg/mL

Question: Which Solubility [1] does the source give for NCc1ccc(Cl)c(O)c1.NCc1ccc(Cl)c(O)c1.[I][Pt][I] [drawing 209] here?
Answer: 400 µg/mL

Question: Which Solubility [1] does the source give for NCc1ccc(Cl)c(O)c1.NCc1ccc(Cl)c(O)c1.[Cl][Pt][Cl] [drawing 210] here?
Answer: 900 µg/mL

Question: With NCc1ccc(C(=O)O)cc1.NCc1ccc(C(=O)O)cc1.[I][Pt][I] [drawing 211] as the molecule, how does the Solubility [1] read?
Answer: 1000 µg/mL

Question: For NCc1ccc(C(=O)O)cc1.NCc1ccc(C(=O)O)cc1.[Cl][Pt][Cl] [drawing 212], which Solubility [1] is on record?
Answer: 2200 µg/mL

Question: With NCc1ccco1.NCc1ccco1.[I][Pt][I] [drawing 213] as the molecule, how does the Solubility [1] read?
Answer: 60 µg/mL

Question: With NCc1ccco1.NCc1ccco1.[Cl][Pt][Cl] [drawing 214] as the molecule, how does the Solubility [1] read?
Answer: 160 µg/mL

Question: Which Solubility [1] does the source give for NCc1ccc(CO)o1.NCc1ccc(CO)o1.[I][Pt][I] [drawing 215] here?
Answer: 200 µg/mL

Question: Which Solubility [1] does the source give for NCc1ccc(CO)o1.NCc1ccc(CO)o1.[Cl][Pt][Cl] [drawing 216] here?
Answer: 1100 µg/mL

Question: Which results are given for NCc1ccc(Cl)cc1.NCc1ccc(Cl)cc1.[Cl][Pt][Cl] [drawing 224]?
Answer: T/C (%) of ST (ratio of survival time of test and control animals) (S180 sarcoma cells; 10 mg/kg): > 140%; T/C (%) of ST (ratio of survival time of test and control animals) ([2]; L1210, 10 mg/kg): > 197%

Question: Which Solubility [1] does the source give for N.N.O=C1[O][Pt][O]C(=O)C12CCC2 [reference compound] here?
Answer: 18500 µg/mL
